The text below walks through data of patent publication US20240294488A1, “ISOTOPOLOGES, SALTS, CRYSTALLINE FORMS, STEREOISOMERS, OF METHYLONE AND ETHYLONE AND METHODS OF USE THEREOF” (Terran Biosciences Inc., priority 2021, published 2024).

A short description of data set [1]: Metabolic stability in human liver microsomes. As to conditions: for difference in half-life and intrinsic clearance compared with the non-deuterated methylone hydrochloride: human liver microsomes; for half-life at 1 μM / microsomal CLint at 1 μM: pooled liver microsomes, pH 7.4, human liver microsomes 0.5 mg/mL, 1 μM compound, NADPH, 0-45 min. Format: in vitro ADME. How it is done:
Pooled liver microsomes are purchased from a reputable commercial supplier. Microsomes are stored at […] prior to use. Microsomes (final protein concentration 0.5 mg/mL), 0.1 M phosphate buffer pH 7.4 and test compound (final substrate concentration 1 μM; final DMSO concentration 0.25%) are preincubated at 37° C. prior to the addition of NADPH (final concentration 1 mM) to initiate the reaction. A minus cofactor control incubation is included for each compound tested where 0.1 M phosphate buffer pH 7.4 is added instead of NADPH (minus NADPH). Two control compounds are included with each species. All incubations are performed singularly for each test compound. Each compound is incubated for 0, 5, 15, 30 and 45 min. The control (minus NADPH) is incubated for 45 min only. The reactions are stopped by transferring incubate into acetonitrile at the appropriate time points, in a 1:3 ratio. The termination plates are centrifuged at 3,000 rpm for 20 min at 4° C. to precipitate the protein.
From a plot of ln peak area ratio (compound peak area/internal standard peak area) against time, the gradient of the line is determined. Subsequently, half-life and intrinsic clearance are calculated using the equations below:
where V=Incubation volume (μL)/Microsomal protein (mg)
Relevant control compounds were assessed, ensuring intrinsic clearance values fall within the specified limits (if available).

The conditions of data set [2]: cited from earlier work.
The next data set has as its system C57/BL6J mice. Kind of data set: Forced swim test (FST). As to conditions: 24 h after administration. Format: in vivo, mouse. As to the method:
As increased cortical structural plasticity in the anterior parts of the brain mediates the sustained (>24 h) antidepressant-like effects of ketamine and play a role in the therapeutic effects of 5-HT2A agonists, the impact of the present compounds on forced swim test (FST) behavior is evaluated. First, a pretest is used to induce a depressive phenotype. Compounds are administered 24 h after the pre-test, and the FST is performed 24 h and 7 d post compound administration.
Male C57/BL6J mice (9-10 weeks old at time of experiment) are obtained. After 1 week in the vivarium each mouse is handled for approximately 1 minute by the experimenter for 3 consecutive days leading up to the first FST. All experiments are carried out by the same experimenter who performs handling. During the FST, mice undergo a 6 min swim session in a clear Plexiglas cylinder 40 cm tall, 20 cm in diameter, and filled with 30 cm of 24±1° C. water. […] Immobility scores for all mice are determined after the pre-test and mice are randomly assigned to treatment groups to generate groups with similar average immobility scores to be used for the following two FST sessions. […] Experiments are video-recorded and manually scored offline. Immobility time—defined as passive floating or remaining motionless with no activity other than that needed to keep the mouse's head above water—is scored for the last 4 min of the 6 min trial.

The structures appear in SMILES notation.

In the case of `Cl.[2H]C1([2H])Oc2ccc(C(=O)C(C)NC)cc2O1` (racemic) [(rac)-Methylone-d2 hydrochloride, 1-(benzo[d][1,3]dioxol-5-yl-2,2-d2)-2-((methyl)amino)propan-1-one HCl], in data set [1], the “difference in half-life and intrinsic clearance compared with the non-deuterated methylone hydrochloride” value is “demonstrated differences in half-life and intrinsic clearance”; the half-life at 1 μM turned out to be 2.45 h; the microsomal CLint at 1 μM was 9.46 µL/min/mg.
As for `Cl.[2H]C([2H])([2H])NC(C)C(=O)c1ccc2c(c1)OCO2` (racemic) [(rac)-Methylone-d3 hydrochloride, 1-(benzo[d][1,3]dioxol-5-yl)-2-((methyl-d3)amino)propan-1-one HCl], in data set [1], the “difference in half-life and intrinsic clearance compared with the non-deuterated methylone hydrochloride” value was “demonstrated differences in half-life and intrinsic clearance”; the half-life at 1 μM was found to be 2.88 h; the microsomal CLint at 1 μM amounted to 8.02 µL/min/mg.
As for `Cl.[2H]C([2H])([2H])NC(C)C(=O)c1ccc2c(c1)OC([2H])([2H])O2` (racemic) [(rac)-Methylone-d5 hydrochloride, 1-(benzo[d][1,3]dioxol-5-yl-2,2-d2)-2-((methyl-d3)amino)propan-1-one HCl], in data set [1], the “difference in half-life and intrinsic clearance compared with the non-deuterated methylone hydrochloride” value is “the most significant difference in half-life and intrinsic clearance”; the half-life at 1 μM was 3.05 h; the microsomal CLint at 1 μM is 7.59 µL/min/mg.
In the case of `Cl.[2H]C1([2H])Oc2ccc(C(=O)[C@@H](C)NC)cc2O1` [(R)-Methylone-d2 hydrochloride, (R)-1-(benzo[d][1,3]dioxol-5-yl-2,2-d2)-2-((methyl)amino)propan-1-one HCl], in data set [1], the “difference in half-life and intrinsic clearance compared with the non-deuterated methylone hydrochloride” value is “demonstrated differences in half-life and intrinsic clearance”; the half-life at 1 μM was determined as 3.3 h; the microsomal CLint at 1 μM is 7 µL/min/mg.
Consider `Cl.[2H]C([2H])([2H])N[C@H](C)C(=O)c1ccc2c(c1)OCO2` [(R)-Methylone-d3 hydrochloride, (R)-1-(benzo[d][1,3]dioxol-5-yl)-2-((methyl-d3)amino)propan-1-one HCl], for which, in data set [1], the “difference in half-life and intrinsic clearance compared with the non-deuterated methylone hydrochloride” value is “demonstrated differences in half-life and intrinsic clearance”; the half-life at 1 μM was 3.57 h; the microsomal CLint at 1 μM worked out at 6.49 µL/min/mg.
`Cl.[2H]C([2H])([2H])N[C@H](C)C(=O)c1ccc2c(c1)OC([2H])([2H])O2` [(R)-Methylone-d5 hydrochloride, (R)-1-(benzo[d][1,3]dioxol-5-yl-2,2-d2)-2-((methyl-d3)amino)propan-1-one hydrochloride]: in data set [1], the “difference in half-life and intrinsic clearance compared with the non-deuterated methylone hydrochloride” value was “the most significant difference in half-life and intrinsic clearance”; the half-life at 1 μM turned out to be 3.68 h; the microsomal CLint at 1 μM came to 6.27 µL/min/mg.
Turning to `Cl.[2H]C1([2H])Oc2ccc(C(=O)[C@H](C)NC)cc2O1` [(S)-Methylone-d2 hydrochloride, (S)-1-(benzo[d][1,3]dioxol-5-yl-2,2-d2)-2-(methylamino)propan-1-one hydrochloride], in data set [1], the “difference in half-life and intrinsic clearance compared with the non-deuterated methylone hydrochloride” value is “demonstrated differences in half-life and intrinsic clearance”; the half-life at 1 μM stood at 2.45 h; the microsomal CLint at 1 μM was 9.41 µL/min/mg.
On to `Cl.[2H]C([2H])([2H])N[C@@H](C)C(=O)c1ccc2c(c1)OCO2` [(S)-Methylone-d3 hydrochloride, (S)-1-(benzo[d][1,3]dioxol-5-yl)-2-((methyl-d3)amino)propan-1-one HCl], for which, in data set [1], the “difference in half-life and intrinsic clearance compared with the non-deuterated methylone hydrochloride” value was “demonstrated differences in half-life and intrinsic clearance”; the half-life at 1 μM was determined as 2.4 h; the microsomal CLint at 1 μM turned out to be 9.6 µL/min/mg.
For `Cl.[2H]C([2H])([2H])N[C@@H](C)C(=O)c1ccc2c(c1)OC([2H])([2H])O2` [(S)-Methylone-d5 hydrochloride, (S)-1-(benzo[d][1,3]dioxol-5-yl-2,2-d2)-2-((methyl-d3)amino)propan-1-one hydrochloride], in data set [1], the “difference in half-life and intrinsic clearance compared with the non-deuterated methylone hydrochloride” value was “the most significant difference in half-life and intrinsic clearance”; the half-life at 1 μM turned out to be 2.55 h; the microsomal CLint at 1 μM amounted to 9.07 µL/min/mg.
On to `CNC(C)C(=O)c1ccc2c(c1)OCO2` (stereo not drawn) [Methylone, 3,4-methylenedioxy-N-methylcathinone], for which the “Oral Methylone Dose, Drug Activity Level Very Strong” value in data set [2] (oral, modified from WHO 2014) is on record as ≥270 mg. For the same molecule, in data set [2] (re-dose of one-third to one-half the initial dose, WHO 2014), the “effect of re-dose on duration of effects” value was “prolongs duration for approximately one hour”.
Take `CNC1(c2ccccc2Cl)CCCCC1=O` (stereo not drawn) [ketamine]: in the data set with C57/BL6J mice, the “immobility in forced swim test” value was “significantly reduced immobility”.
